Data: ChEMBL document CHEMBL3044749, “Synthesis, characterization, in vitro hydrolysis and pharmacodynamic profiles of potential novel mutual prodrugs of N-(2,3-xylyl anthranilic acid)” (Med Chem Res, 2013)

Columns and labels:
[1] = Half life in simulated intestinal fluid at 37 degC at pH 7.4 by UV spectrophotometer analysis; type: ADME
[2] = Half life in simulated gastrointestinal fluid at 37 degC at pH 1.2 by UV spectrophotometer analysis; type: ADME
[3] = test system: Mus musculus; assay: Analgesic activity in Swiss Mus musculus (mouse) assessed as inhibition of acetic acid-induced abdominal writhing at 27.65 mg/kg, po administered 1 hr prior to acetic acid injection measured for 10 min; type: functional; conditions: Abdomen
[4] = test system: Rattus norvegicus; assay: Anti-inflammatory activity in Wistar albino Rattus norvegicus (rat) assessed as inhibition of carrageenan-induced paw edema at 27.65 mg/kg, po administered 1 hr prior to carrageenan injection measured after 8 hr by mercury plethysmometer (reference value: 0%); type: functional
[5] = test system: Rattus norvegicus; assay: Anti-inflammatory activity in Wistar albino Rattus norvegicus (rat) assessed as inhibition of carrageenan-induced paw edema at 27.65 mg/kg, po administered 1 hr prior to carrageenan injection measured after 6 hr by mercury plethysmometer (reference value: 0%); type: functional
[6] = test system: Rattus norvegicus; assay: Anti-inflammatory activity in Wistar albino Rattus norvegicus (rat) assessed as inhibition of carrageenan-induced paw edema at 27.65 mg/kg, po administered 1 hr prior to carrageenan injection measured after 4 hr by mercury plethysmometer (reference value: 0%); type: functional
[7] = test system: Rattus norvegicus; assay: Anti-inflammatory activity in Wistar albino Rattus norvegicus (rat) assessed as inhibition of carrageenan-induced paw edema at 27.65 mg/kg, po administered 1 hr prior to carrageenan injection measured after 3 hr by mercury plethysmometer (reference value: 0%); type: functional
[8] = test system: Rattus norvegicus; assay: Anti-inflammatory activity in Wistar albino Rattus norvegicus (rat) assessed as inhibition of carrageenan-induced paw edema at 27.65 mg/kg, po administered 1 hr prior to carrageenan injection measured after 2 hr by mercury plethysmometer (reference value: 0%); type: functional
[9] = test system: Rattus norvegicus; assay: Anti-inflammatory activity in Wistar albino Rattus norvegicus (rat) assessed as inhibition of carrageenan-induced paw edema at 27.65 mg/kg, po administered 1 hr prior to carrageenan injection measured after 1 hr by mercury plethysmometer (reference value: 0%); type: functional
[10] = Stability of the compound assessed as prodrug hydrolysis in non-enzymatic simulated gastric fluid at 37 degC at pH 1.2 measured for 2 hr by UV spectrophotometer analysis; type: physicochemical; conditions: simulated gi fluid, pH 1.2, 2 h
[11] = test system: Rattus norvegicus; assay: Gastrointestinal toxicity in Wistar albino Rattus norvegicus (rat) assessed as ulcerogenicity index at 27.65 mg/kg, po administered for 7 days measured on day 8 (reference value: 0 no unit); type: organism-based; parameters: dose 27.65 mg/kg, route oral; conditions: in vivo, 168 h
[12] = test system: Rattus norvegicus; assay: Anti-inflammatory activity in Wistar albino Rattus norvegicus (rat) assessed as inhibition of carrageenan-induced paw edema at 24.65 mg/kg, po administered 1 hr prior to carrageenan injection measured after 1 hr by mercury plethysmometer (reference value: 0%); type: functional
[13] = test system: Rattus norvegicus; assay: Anti-inflammatory activity in Wistar albino Rattus norvegicus (rat) assessed as inhibition of carrageenan-induced paw edema at 24.65 mg/kg, po administered 1 hr prior to carrageenan injection measured after 3 hr by mercury plethysmometer (reference value: 0%); type: functional
[14] = test system: Rattus norvegicus; assay: Anti-inflammatory activity in Wistar albino Rattus norvegicus (rat) assessed as inhibition of carrageenan-induced paw edema at 24.65 mg/kg, po administered 1 hr prior to carrageenan injection measured after 2 hr by mercury plethysmometer (reference value: 0%); type: functional
[15] = test system: Mus musculus; assay: Analgesic activity in Swiss Mus musculus (mouse) assessed as inhibition of acetic acid-induced abdominal writhing at 24.65 mg/kg, po administered 1 hr prior to acetic acid injection measured for 10 min; type: functional; conditions: Abdomen
[16] = test system: Rattus norvegicus; assay: Anti-inflammatory activity in Wistar albino Rattus norvegicus (rat) assessed as inhibition of carrageenan-induced paw edema at 24.65 mg/kg, po administered 1 hr prior to carrageenan injection measured after 8 hr by mercury plethysmometer (reference value: 0%); type: functional
[17] = test system: Rattus norvegicus; assay: Anti-inflammatory activity in Wistar albino Rattus norvegicus (rat) assessed as inhibition of carrageenan-induced paw edema at 24.65 mg/kg, po administered 1 hr prior to carrageenan injection measured after 6 hr by mercury plethysmometer (reference value: 0%); type: functional
[18] = test system: Rattus norvegicus; assay: Anti-inflammatory activity in Wistar albino Rattus norvegicus (rat) assessed as inhibition of carrageenan-induced paw edema at 24.65 mg/kg, po administered 1 hr prior to carrageenan injection measured after 4 hr by mercury plethysmometer (reference value: 0%); type: functional
[19] = test system: Rattus norvegicus; assay: Gastrointestinal toxicity in Wistar albino Rattus norvegicus (rat) assessed as ulcerogenicity index at 24.65 mg/kg, po administered for 7 days measured on day 8 (reference value: 0 no unit); type: organism-based; parameters: dose 24.65 mg/kg, route oral; conditions: in vivo, 168 h
[20] = test system: Rattus norvegicus; assay: Anti-inflammatory activity in Wistar albino Rattus norvegicus (rat) assessed as inhibition of carrageenan-induced paw edema at 23 mg/kg, po administered 1 hr prior to carrageenan injection measured after 8 hr by mercury plethysmometer (reference value: 0%); type: functional
[21] = test system: Rattus norvegicus; assay: Anti-inflammatory activity in Wistar albino Rattus norvegicus (rat) assessed as inhibition of carrageenan-induced paw edema at 23 mg/kg, po administered 1 hr prior to carrageenan injection measured after 6 hr by mercury plethysmometer (reference value: 0%); type: functional
[22] = test system: Rattus norvegicus; assay: Anti-inflammatory activity in Wistar albino Rattus norvegicus (rat) assessed as inhibition of carrageenan-induced paw edema at 23 mg/kg, po administered 1 hr prior to carrageenan injection measured after 4 hr by mercury plethysmometer (reference value: 0%); type: functional
[23] = test system: Rattus norvegicus; assay: Anti-inflammatory activity in Wistar albino Rattus norvegicus (rat) assessed as inhibition of carrageenan-induced paw edema at 23 mg/kg, po administered 1 hr prior to carrageenan injection measured after 3 hr by mercury plethysmometer (reference value: 0%); type: functional
[24] = test system: Rattus norvegicus; assay: Anti-inflammatory activity in Wistar albino Rattus norvegicus (rat) assessed as inhibition of carrageenan-induced paw edema at 23 mg/kg, po administered 1 hr prior to carrageenan injection measured after 2 hr by mercury plethysmometer (reference value: 0%); type: functional
[25] = test system: Rattus norvegicus; assay: Anti-inflammatory activity in Wistar albino Rattus norvegicus (rat) assessed as inhibition of carrageenan-induced paw edema at 23 mg/kg, po administered 1 hr prior to carrageenan injection measured after 1 hr by mercury plethysmometer (reference value: 0%); type: functional
[26] = test system: Mus musculus; assay: Analgesic activity in Swiss Mus musculus (mouse) assessed as inhibition of acetic acid-induced abdominal writhing at 23 mg/kg, po administered 1 hr prior to acetic acid injection measured for 10 min; type: functional; conditions: Abdomen
[27] = test system: Rattus norvegicus; assay: Gastrointestinal toxicity in Wistar albino Rattus norvegicus (rat) assessed as ulcerogenicity index at 23 mg/kg, po administered for 7 days measured on day 8 (reference value: 0 no unit); type: organism-based; parameters: dose 23 mg/kg, route oral; conditions: in vivo, 168 h
[28] = test system: Rattus norvegicus; assay: Anti-inflammatory activity in Wistar albino Rattus norvegicus (rat) assessed as inhibition of carrageenan-induced paw edema at 13 mg/kg, po administered 1 hr prior to carrageenan injection measured after 4 hr by mercury plethysmometer (reference value: 0%); type: functional
[29] = test system: Rattus norvegicus; assay: Anti-inflammatory activity in Wistar albino Rattus norvegicus (rat) assessed as inhibition of carrageenan-induced paw edema at 13 mg/kg, po administered 1 hr prior to carrageenan injection measured after 3 hr by mercury plethysmometer (reference value: 0%); type: functional
[30] = test system: Rattus norvegicus; assay: Anti-inflammatory activity in Wistar albino Rattus norvegicus (rat) assessed as inhibition of carrageenan-induced paw edema at 13 mg/kg, po administered 1 hr prior to carrageenan injection measured after 2 hr by mercury plethysmometer (reference value: 0%); type: functional
[31] = test system: Rattus norvegicus; assay: Anti-inflammatory activity in Wistar albino Rattus norvegicus (rat) assessed as inhibition of carrageenan-induced paw edema at 13 mg/kg, po administered 1 hr prior to carrageenan injection measured after 1 hr by mercury plethysmometer (reference value: 0%); type: functional
[32] = test system: Rattus norvegicus; assay: Anti-inflammatory activity in Wistar albino Rattus norvegicus (rat) assessed as inhibition of carrageenan-induced paw edema at 13 mg/kg, po administered 1 hr prior to carrageenan injection measured after 8 hr by mercury plethysmometer (reference value: 0%); type: functional
[33] = test system: Rattus norvegicus; assay: Anti-inflammatory activity in Wistar albino Rattus norvegicus (rat) assessed as inhibition of carrageenan-induced paw edema at 13 mg/kg, po administered 1 hr prior to carrageenan injection measured after 6 hr by mercury plethysmometer (reference value: 0%); type: functional
[34] = test system: Mus musculus; assay: Analgesic activity in Swiss Mus musculus (mouse) assessed as inhibition of acetic acid-induced abdominal writhing at 13 mg/kg, po administered 1 hr prior to acetic acid injection measured for 10 min; type: functional; conditions: Abdomen
[35] = test system: Rattus norvegicus; assay: Gastrointestinal toxicity in Wistar albino Rattus norvegicus (rat) assessed as ulcerogenicity index at 13 mg/kg, po administered for 7 days measured on day 8 (reference value: 0 no unit); type: organism-based; parameters: dose 13 mg/kg, route oral; conditions: in vivo, 168 h

## Cc1cccc(Nc2ccccc2C(=O)NCC(=O)OCc2c(C(C)C)c(=O)n(-c3ccccc3)n2C)c1C
[1]
  half-life: 8.98 h
[2]
  half-life: 18.7 h
[3]
  inhibition in vivo at 27.65 mg/kg: 63.9%
[4]
  inhibition in vivo at 27.65 mg/kg: 10%
[5]
  inhibition in vivo at 27.65 mg/kg: 38.5%
[6]
  inhibition in vivo at 27.65 mg/kg: 83.7%
[7]
  inhibition in vivo at 27.65 mg/kg: 85.7%
[8]
  inhibition in vivo at 27.65 mg/kg: 77.2%
[9]
  inhibition in vivo at 27.65 mg/kg: 23.3%
[10]
  Stability: Stable
[11]
  UI: 1

## Cc1cccc(Nc2ccccc2C(=O)OCc2c(C(C)C)c(=O)n(-c3ccccc3)n2C)c1C
[1]
  half-life: 7.37 h
[2]
  half-life: 16.2 h
[12]
  inhibition in vivo at 24.65 mg/kg: 13.3%
[13]
  inhibition in vivo at 24.65 mg/kg: 71.4%
[14]
  inhibition in vivo at 24.65 mg/kg: 59.1%
[15]
  inhibition in vivo at 24.65 mg/kg: 81.7%
[16]
  inhibition in vivo at 24.65 mg/kg: 44%
[17]
  inhibition in vivo at 24.65 mg/kg: 62.9%
[18]
  inhibition in vivo at 24.65 mg/kg: 72.6%
[10]
  Stability: Stable
[19]
  UI: 0.25

## CC(C)c1c(CO)n(C)n(-c2ccccc2)c1=O [3-HYDROXYMETHYL PROPYPHENAZONE]
[20]
  inhibition in vivo at 23 mg/kg: 12%
[21]
  inhibition in vivo at 23 mg/kg: 23.7%
[22]
  inhibition in vivo at 23 mg/kg: 31.2%
[23]
  inhibition in vivo at 23 mg/kg: 40.2%
[24]
  inhibition in vivo at 23 mg/kg: 46.4%
[25]
  inhibition in vivo at 23 mg/kg: 31.5%
[26]
  inhibition in vivo at 23 mg/kg: 78.3%
[27]
  UI: 1.25

## Cc1cccc(Nc2ccccc2C(=O)O)c1C [MEFENAMIC ACID]
[28]
  inhibition in vivo at 13 mg/kg: 35.6%
[29]
  inhibition in vivo at 13 mg/kg: 53.1%
[30]
  inhibition in vivo at 13 mg/kg: 52.2%
[31]
  inhibition in vivo at 13 mg/kg: 38.4%
[32]
  inhibition in vivo at 13 mg/kg: 20%
[33]
  inhibition in vivo at 13 mg/kg: 24.3%
[34]
  inhibition in vivo at 13 mg/kg: 61.1%
[35]
  UI: 3.17
